How the values were obtained:
[1] = biological target: T1, Human O-GlcNAcase (Homo sapiens, UniProt O60502); experiment: Inhibition of human O-GlcNAcase; format: biochemical; settings: Table 2
T1 construct: made in house
T1 sequence (O60502 1-916): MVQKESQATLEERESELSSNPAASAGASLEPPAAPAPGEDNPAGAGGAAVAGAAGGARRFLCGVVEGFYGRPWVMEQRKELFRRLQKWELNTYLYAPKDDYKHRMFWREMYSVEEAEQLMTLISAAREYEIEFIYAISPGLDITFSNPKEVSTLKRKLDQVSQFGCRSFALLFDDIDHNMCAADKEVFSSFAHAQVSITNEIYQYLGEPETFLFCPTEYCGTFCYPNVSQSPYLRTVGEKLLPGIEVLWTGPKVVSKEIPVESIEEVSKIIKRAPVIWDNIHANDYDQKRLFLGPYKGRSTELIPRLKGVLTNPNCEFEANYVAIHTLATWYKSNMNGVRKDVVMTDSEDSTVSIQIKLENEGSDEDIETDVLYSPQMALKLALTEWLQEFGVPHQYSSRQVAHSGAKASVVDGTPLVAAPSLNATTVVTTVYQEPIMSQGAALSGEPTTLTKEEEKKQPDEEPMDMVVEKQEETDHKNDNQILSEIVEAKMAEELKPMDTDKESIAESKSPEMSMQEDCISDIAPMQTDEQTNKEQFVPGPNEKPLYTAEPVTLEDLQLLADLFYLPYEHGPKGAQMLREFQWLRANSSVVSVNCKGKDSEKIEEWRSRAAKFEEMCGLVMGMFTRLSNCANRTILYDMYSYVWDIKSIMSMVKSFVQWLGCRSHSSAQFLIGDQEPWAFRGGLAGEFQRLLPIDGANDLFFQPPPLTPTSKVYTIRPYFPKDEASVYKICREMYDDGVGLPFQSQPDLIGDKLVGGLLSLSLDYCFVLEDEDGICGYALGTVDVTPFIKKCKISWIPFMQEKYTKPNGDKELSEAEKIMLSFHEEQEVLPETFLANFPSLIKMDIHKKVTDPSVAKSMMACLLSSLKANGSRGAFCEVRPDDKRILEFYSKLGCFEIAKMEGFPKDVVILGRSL
Procedure: Human O-GlcNAcase was also prepared and tested according to the procedures described in Gao et al., J. Biol. Chem. 2001, 276, 9838-9845 and Macauley et al., J. Am. Chem. Soc. 2005, 127, 17202-17203.

[2] = biological target: T2, human Hex B (FLAG-HexB) (Homo sapiens, UniProt P07686); experiment: In situ immunostaining of Compound 5 and FLAG-HexB in 293T/FLAG-HexB cells; format: cell-based; settings: confocal immunofluorescence, anti-FLAG and anti-biotin antibodies
T2 construct: FLAG (N); expressed in transfected cells
T2 sequence (P07686 122-556): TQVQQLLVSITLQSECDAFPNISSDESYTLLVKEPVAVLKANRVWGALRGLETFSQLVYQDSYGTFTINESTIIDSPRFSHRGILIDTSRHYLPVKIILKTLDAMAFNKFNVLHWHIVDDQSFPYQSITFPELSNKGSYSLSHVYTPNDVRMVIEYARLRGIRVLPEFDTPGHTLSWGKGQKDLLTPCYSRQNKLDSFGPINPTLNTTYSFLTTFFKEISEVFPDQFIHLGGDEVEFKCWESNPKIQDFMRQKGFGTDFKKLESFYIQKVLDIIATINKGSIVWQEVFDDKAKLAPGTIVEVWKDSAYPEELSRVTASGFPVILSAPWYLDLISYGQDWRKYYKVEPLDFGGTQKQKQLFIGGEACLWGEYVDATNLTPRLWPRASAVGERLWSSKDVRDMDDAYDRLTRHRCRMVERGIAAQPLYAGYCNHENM
Procedure: (§1) A DNA fragment encoding human Hex B was amplified by PCR and cloned into pCMV-Tag 2B vector (Stratagene) to produce FLAG-tagged HexB expression plasmid (pFLAG-HexB). This plasmid was introduced into 293T cells to establish a cell line stably expressing FLAG-HexB. Briefly, 293T cells were maintained in Dulbecco's modified Eagle's medium (DMEM) supplemented with 10% (by volumn) heat inactivated fetal bovine serum (FBS), 2 mM glutamine, 100 units/mL penicillin and 100 μg/mL streptomycin at 37° C. in a 5% CO2 atmosphere. These cells were transfected with expression plasmid pFLAG-HexB and plasmid pBabe-puro (carrying a puromycin resistance gene) at a molar ratio of 30-40:1. 8 hours later, the transfected cells were fed with fresh medium and incubated for 16 h. These cells were then cultured in puromycin-containing (2 μg/mL) medium for 2-3 weeks to screen for puromycin-resistant clones.
Binding of Compound 5 to HexB was first examined by in situ immunostaining as follows. 293T/FLAG-HexB cells were grown on glass coverslips in the presence of biotin-conjugated Compound 5 and fixed in 4% paraformaldehyde for 15 min. […]

[3] = biological target: T2, human Hex B (FLAG-HexB); experiment: Immunoprecipitation / streptavidin pull-down and Western blot from 293T/FLAG-HexB cell lysate; format: binding; settings: 200 nM, room temperature 10 min
Procedure: as §1
Binding of Compound 5 to FLAG-HexB were further confirmed by immuno-precipitation and Westernblot assays. The 293T/FLAG-HexB cells were lysed with a lysis buffer containing 1% NP-40, 10 mM Tris-HCl at pH 7.4, 150 mM NaCl, 2 mM EDTA, 1 mM phenylmethylsulfonyl fluoride, and a proteinase inhibitor cocktail (Sigma), and the cell lysate was then incubated at room temperature for 10 min in the presence or absence of Compound 5 (200 nM). […]

CC(=O)NC1CN(CCCCCCCNC(=O)CCCCC2SCC3NC(=O)NC32)C(CO)C(O)C1O (stereo not shown) [Compound 5]
Selectivity (KI O-GlcNAcase/KI HEX) ([1]; Human O-GlcNAcase over human HEX B): 5,400
Ki ([1]; Human O-GlcNAcase): 145 ± 1.77 µM
co-localization of FLAG-HexB and compound [2]: co-localized in the cytoplasm
association of FLAG-HexB with compound (streptavidin-agarose beads) [3]: FLAG-HexB protein was attached to the streptavidin-agarose beads
